In patent publication US20230095520A1, “PHARMACEUTICAL COMPOSITION FOR PREVENTING OR TREATING CANCER COMPRISING AZOLE DERIVATIVES OR PHARMACEUTICALLY ACCEPTABLE SALT THEREOF” (Yungjin Pharm. Co., Ltd., priority 2020, published 2023) one finds GI50, IC50 and inhibition data, which are given here for two compounds.

Experiment [1] has as its system Huh7. Briefly: Cancer cell proliferation GI50 (CCK-8). The class given is cell-based. The settings on record: Huh7 (Huh-7), liver cancer, 72 hours. As for the experimental part: (§1) The proliferation effect of SY-1365, which is known to have a proliferation inhibitory effect on various carcinoma cells, and the compound of the present invention on various cancer cells was measured and compared as GI50 (half maximal growth inhibitory concentration, the concentration at which cell proliferation is reduced by half).
(§2) Various carcinoma cells were cultured at 37° C. in a humidified condition in the presence of 5% CO2. Each cell cultured in a 96-well cell culture plate was treated with the compound of the present invention and cultured for 72 hours.
(§3) In this example, in order to confirm the proliferation inhibitory effect on various cancer cells, Compound 121 was tested as follows.
(§4) The cells were cultured with a culture medium shown in Table 9 below at 37° C. in a humidified condition in the presence of 5% CO2. Each cell cultured in a 96-well cell culture plate was treated with the compound of the present invention and cultured for 72 hours.

Experiment [2] concerns Hep3B. Briefly: Cancer cell proliferation GI50 (CCK-8). In kind it is cell-based. The settings on record: liver cancer, 72 hours. As for the experimental part:
as §1, §2, §3, §4

The subject of experiment [3] is MDA-MB-468. Briefly: Cancer cell proliferation GI50 (CCK-8). The class given is cell-based. To be noted: MDA-MB-468, breast cancer, 72 hours. The method, then: as §1, §2, §3, §4
Experiment [4] deals with MDA-MB-231. Briefly: Cancer cell proliferation GI50 (CCK-8). In kind it is cell-based. The settings on record: MDA-MB-231, breast cancer, 72 hours. As for the experimental part:
as §1, §2, §3, §4

The test system of experiment [5] is HepG2. Briefly: Cancer cell proliferation GI50 (CCK-8). To be noted: HepG2, liver cancer, 72 hours. In kind it is cell-based, human. The method, then:
as §1, §2, §3, §4

The test system of experiment [6] is HepG2 cells. Briefly: HepG2 cell proliferation inhibition (CCK-8). To be noted: Homo sapiens, HepG2, 72 h. In kind it is cell-based. As for the experimental part:
HepG2 cells are human hepatocellular carcinoma cells. In order to evaluate the efficacy of inhibiting the proliferation in HepG2 cells, HepG2 cells were treated with the compounds of the present invention, and the proliferation level was measured as follows.
The cells were cultured with a culture medium of MEM (Welgene)+10% FBS (Gibco)+1% penicillin/streptomycin (Gibco) at 37° C. in a humidified condition in the presence of 5% CO2. HepG2 cells cultured in a 96-well cell culture plate were treated with the compound of the present invention and cultured for 72 hours.

The test system of experiment [7] is MV-4-11 cells. Nature of the experiment: MV-4-11 cell proliferation inhibition (CCK-8). The class given is cell-based. To be noted: Homo sapiens, 72 hours. The essentials:
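The FLT3-mutant AML line MV-4-11 was exposed to compound for 72 h. Antiproliferative effect was read with the tetrazolium-based CCK-8 method.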

Experiment [8] addresses T1, Recombinant purified human CDK7 (Homo sapiens, UniProt P50613).
T1 construct: purchased ThermoFisher PV3868
Nature of the experiment: CDK7 activity inhibition, ADP-Glo kinase assay. The class given is biochemical. The settings on record: ATP 90 μM, MBP substrate, 2 hours 30° C. The method in brief:
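Human recombinant CDK7 (50 ng per reaction) in 40 mM Tris-Cl pH 7.5, 20 mM MgCl2, 0.1 mg/ml BSA, 50 μM DTT, with 1% DMSO. The reaction used 90 μM ATP and 0.2 μg/μl MBP substrate for 2 h at 30 °C. ADP formed was quantified by ADP-Glo luminescence to derive inhibition.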
On the technique in general: ADP-Glo first removes unused ATP, then detects ADP through luciferase.

For experiment [9], the system named is MDA-MB-468 cells. Briefly: MDA-MB-468 cell proliferation inhibition (MTT). To be noted: MDA-MB-468 proliferation. In kind it is cell-based. As for the experimental part: MDA-MB-468 cells are one of the triple-negative breast cancer (TNBC: negative for the expression of estrogen receptor, progesterone receptor and HER2) cells known as a malignant tumor that is difficult to diagnose at an early stage and has a high metastatic capacity, and these cells are used to test inhibition of proliferation and survival of breast cancer cells.
MDA-MB-468 cells cultured in a 96-well cell culture plate were treated with the compound of the present invention and cultured for 72 hours. Thereafter, the antiproliferative effect of the compound was assayed by the MTT method using a tetrazolium salt.

T1 sequence (P50613 whole entry): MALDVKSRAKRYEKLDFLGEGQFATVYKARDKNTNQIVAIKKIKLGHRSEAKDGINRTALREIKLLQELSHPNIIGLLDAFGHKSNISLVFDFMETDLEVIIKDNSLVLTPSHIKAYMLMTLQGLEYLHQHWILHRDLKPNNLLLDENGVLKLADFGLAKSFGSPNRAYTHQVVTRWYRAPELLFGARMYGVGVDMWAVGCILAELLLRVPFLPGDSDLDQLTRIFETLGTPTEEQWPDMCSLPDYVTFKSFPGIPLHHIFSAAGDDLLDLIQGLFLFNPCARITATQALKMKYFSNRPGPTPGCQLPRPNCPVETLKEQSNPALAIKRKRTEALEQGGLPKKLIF
T1 sequence (P51946 whole entry partner): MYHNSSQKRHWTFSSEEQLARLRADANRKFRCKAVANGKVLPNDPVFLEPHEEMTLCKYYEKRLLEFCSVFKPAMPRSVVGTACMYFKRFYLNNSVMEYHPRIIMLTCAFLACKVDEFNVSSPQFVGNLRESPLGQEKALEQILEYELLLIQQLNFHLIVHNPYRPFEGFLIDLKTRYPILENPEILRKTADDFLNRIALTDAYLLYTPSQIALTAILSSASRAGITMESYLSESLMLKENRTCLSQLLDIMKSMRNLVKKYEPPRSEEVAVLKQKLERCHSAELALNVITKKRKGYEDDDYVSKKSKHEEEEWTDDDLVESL
T1 sequence (P51948 whole entry partner): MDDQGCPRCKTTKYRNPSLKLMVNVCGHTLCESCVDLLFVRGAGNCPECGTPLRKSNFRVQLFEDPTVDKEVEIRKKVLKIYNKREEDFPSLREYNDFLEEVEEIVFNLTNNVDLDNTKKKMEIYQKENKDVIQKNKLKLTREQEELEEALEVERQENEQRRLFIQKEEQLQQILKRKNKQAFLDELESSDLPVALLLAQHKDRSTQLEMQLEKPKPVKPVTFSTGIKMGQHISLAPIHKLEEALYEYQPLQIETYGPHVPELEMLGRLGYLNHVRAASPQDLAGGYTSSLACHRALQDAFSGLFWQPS

On to `CN(C)C/C=C/C(=O)Nc1ccc(C(=O)N[C@@]2(C)CCC[C@@H](Nc3ncc(Cl)c(-c4c[nH]c5ccccc45)n3)C2)nc1` [SY-1365, reference compound], for which the GI50 – broadly, the concentration giving 50% growth inhibition – in experiment [1] amounted to 20 nM; in experiment [2], 36 nM; in [3] it was 18 nM; in experiment [4], 70 nM; in experiment [5], 19 nM.

In the case of `C=CC(=O)Nc1cnc(-c2cncc(C(C)C(=O)Nc3ncc(C(F)(F)F)s3)c2)cn1` (centres unmarked) [Compound 45, N-(5-(5-(1-oxo-1-((5-(trifluoromethyl)thiazol-2-yl)amino)propan-2-yl)pyridin-3-yl)pyrazin-2-yl)acrylamide], the IC50 (in general, the concentration needed to halve the response being measured) was 8.3 nM in experiment [6]; 8 nM in experiment [7] (MV4-11, MV-4-11 proliferation); 22.7 nM in experiment [8]; at most 14 nM in [9] (Homo sapiens, MDA-MB-468, 72 h); 9.5 nM in [9] (72 hours). For the same compound, the inhibition (commonly the drop in the measured response relative to a control, in per cent) at 0.1 µM in experiment [7] (MV4-11, MV-4-11, compound concentration 100 nM, read-out: Inhibition rate (%)) amounted to 100%.
